Usually Ki stands for a measure of affinity in units of concentration, obtained from inhibition or displacement. Higher therefore signals lower affinity.

These results are taken from BindingDB's records for PubMed 6292197 (Kyoto University, 1982).

Each structure is given as a SMILES string.

The target of this assay is T1, Prostaglandin D2 receptor (Rattus norvegicus, UniProt Q9R261).
T1 sequence (Q9R261 whole entry): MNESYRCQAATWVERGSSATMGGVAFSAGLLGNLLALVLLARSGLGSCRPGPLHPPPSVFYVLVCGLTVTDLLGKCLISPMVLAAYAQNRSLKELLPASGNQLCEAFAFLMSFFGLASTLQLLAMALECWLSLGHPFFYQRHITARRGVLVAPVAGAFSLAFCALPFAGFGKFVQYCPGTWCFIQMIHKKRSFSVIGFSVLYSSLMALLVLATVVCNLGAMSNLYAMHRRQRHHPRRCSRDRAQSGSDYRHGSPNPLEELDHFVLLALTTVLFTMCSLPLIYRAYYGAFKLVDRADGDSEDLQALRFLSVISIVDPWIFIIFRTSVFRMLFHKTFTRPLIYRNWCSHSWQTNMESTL
The compound `CCCCC[C@@H](O)/C=C/[C@H]1[C@H](O)CC(=O)[C@@H]1CCCCCCC(=O)O` had a Ki of 3760 nM.
With `CCCCC[C@H](O)/C=C/[C@@H]1[C@@H](CC(=O)CCCCC(=O)O)[C@@H](O)C[C@H]1O` [6-KETO-PROSTAGLANDIN F1ALPHA] the figure was more than 10000 nM; with `CCCCC[C@H](O)/C=C/C1[C@H](O)C[C@H](O)[C@@H]1C/C=C\CCCC(=O)O` (stereo partly drawn) [(Z)-7-[(1R,3R,5S)-3,5-Dihydroxy-2-((E)-(S)-3-hydroxy-oct-1-enyl)-cyclopentyl]-hept-5-enoic acid], 693 nM; with `CCCCC[C@H](O)C=C[C@H]1C=CC(=O)[C@@H]1C/C=C\CCCC(=O)O` [(Z)-7-[(1R,5S)-2-oxidanylidene-5-[(E,3S)-3-oxidanyloct-1-enyl]cyclopent-3-en-1-yl]hept-5-enoic acid], more than 10000 nM.
With `CCCCCC(O)CC=C1C(=O)C=CC1CC=CCCCC(=O)O` (stereo unspecified) [CAS_41598-07-6] the figure was 19 nM; with `CCCCCC(O)C=CC1C(=O)CC(O)C1CC=CCCCC(=O)OC` (stereo unspecified) [CAS_114676], 27 nM.
The figure for `CCCCC[C@H](O)/C=C/[C@H]1[C@H](O)CC(=O)[C@@H]1C/C=C\CCCC(=O)O` [DINOPROSTONE] is 2950 nM; for `CCCCCC(O)C=CC1C(=O)CC(O)C1CCCCCCC(=O)O` (stereo unspecified) [NSC_205449] it is 523 nM; for `CCCCCC(O)C=CC1=C(CC=CCCCC(=O)O)C(=O)CC1` (stereo unspecified) [NSC_5280881] it is more than 10000 nM.
For `CCCCCC(O)C=CC1C(O)CC2OC(=CCCCC(=O)O)CC21` (stereo unspecified) [NSC_5282411], the affinity, expressed as Ki, was 3540 nM.
The figure for `CCCCC[C@H](O)/C=C/[C@H]1OC(O)C[C@H](O)[C@@H]1C/C=C\CCCC(=O)O` (stereo partly specified) [THROMBOXANE B2] is 4200 nM.
